From article PMC3382599, “The Anti-Tumor Effect of A3 Adenosine Receptors Is Potentiated by Pulsed Electromagnetic Fields in Cultured Neural Cancer Cells” (PLoS ONE, 2012)

Biological target: T1, A2BARs (rat cortical neurons) (Rattus norvegicus, UniProt P29276)
T1 construct: gene Adora2b; native receptor in membranes of primary cortical neurons from day-18 rat embryos
T1 sequence (P29276 1-332): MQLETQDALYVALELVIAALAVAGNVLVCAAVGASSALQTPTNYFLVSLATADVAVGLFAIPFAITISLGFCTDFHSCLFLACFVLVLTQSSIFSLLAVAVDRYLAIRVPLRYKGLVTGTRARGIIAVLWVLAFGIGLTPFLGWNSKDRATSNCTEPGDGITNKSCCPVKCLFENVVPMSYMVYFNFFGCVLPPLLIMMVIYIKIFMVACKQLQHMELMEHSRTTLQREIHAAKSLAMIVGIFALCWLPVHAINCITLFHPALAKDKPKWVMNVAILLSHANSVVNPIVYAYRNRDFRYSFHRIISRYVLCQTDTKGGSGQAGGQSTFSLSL
Assay: radioligand saturation binding, membranes
Conditions: rat cortical neuron membranes, no PEMF; labelled compound
Text: radioligand saturation binding, membranes on A2BARs (rat cortical neurons)

For `CCCn1c(=O)c2[nH]c(-c3cc(OCC(=O)Nc4ccc5c(c4)OCO5)nn3C)nc2n(CCC)c1=O` [[3H]-MRE 2029F20, [^3H]-N-benzo [1], [3]dioxol-5-yl-2-[5-(2,6-dioxo-1,3-dipropyl-2,3,6,7-tetrahydro-1H-purin-8-yl)-1-methy-1H-pyrazol-3-yl-oxy]-acetamide], the Kd was 1.52 ± 0.11 nM.
